Test results reported in the supplement of paper PMC11061612.

Legend:
Experiment in all cases: combination Emax (second highest fraction inhibited in the dose matrix, 72 h); higher = more inhibition; extreme values may be limits of the assay
[1] = tested on: A3-KAW (B-Cell Non-Hodgkin's Lymphoma)
How it was run: (§1)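 After 24 hours at 37°C and 5% CO2 in 1536-well plates, cells in DMEM/F12 or RPMI plus 10% FBS received two-drug dose matrices for 72 hours. Viability came from CellTiter-Glo 2.0 luminescence and was scaled as inhibition, anchored at 0 by vehicle wells and at 1 by blank wells. Combination Emax is taken as the second-highest inhibition in the matrix, and Bliss excess as the observed combination effect less EA + EB − EA·EB, with EA and EB the single-agent effects.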

[2] = tested on: A549 (Lung Adenocarcinoma)
How it was run: as §1

[3] = tested on: CAL-29 (Bladder Carcinoma)
How it was run: as §1

[4] = tested on: CCK-81 (Colorectal Carcinoma)
How it was run: as §1

[5] = tested on: ECC10 (Gastric Carcinoma)
How it was run: as §1

FU97 (Gastric Carcinoma) = tested on: FU97 (Gastric Carcinoma)
How it was run: as §1

[6] = tested on: HCC1954 (Breast Carcinoma)
How it was run: as §1

Hs-445 (Non-Cancerous) = tested on: Hs-445 (Non-Cancerous)
How it was run: as §1

IGR-37 (Melanoma) = tested on: IGR-37 (Melanoma)
How it was run: as §1

[7] = tested on: MDST8 (Colorectal Carcinoma)
How it was run: as §1

[8] = tested on: NCI-H1666 (Lung Adenocarcinoma)
How it was run: as §1

NCI-H2591 (Mesothelioma) = tested on: NCI-H2591 (Mesothelioma)
How it was run: as §1

[9] = tested on: ONS-76 (Other Solid Carcinomas)
How it was run: as §1

[10] = tested on: OS-RC-2 (Kidney Carcinoma)
How it was run: as §1

[11] = tested on: PANC-10-05 (Pancreatic Carcinoma)
How it was run: as §1

[12] = tested on: SK-MES-1 (Squamous Cell Lung Carcinoma)
How it was run: as §1

[13] = tested on: SK-MG-1 (Low Grade Glioma)
How it was run: as §1

[14] = tested on: TT (Thyroid Gland Carcinoma)
How it was run: as §1

U-2-OS (Osteosarcoma) = tested on: U-2-OS (Osteosarcoma)
How it was run: as §1

[15] = tested on: VCaP (Prostate Carcinoma)
How it was run: as §1

SMILES | combination Emax [1] | combination Emax [2] | combination Emax [3] | combination Emax [4] | combination Emax [5] | combination Emax (FU97 (Gastric Carcinoma)) | combination Emax [6] | combination Emax (Hs-445 (Non-Cancerous)) | combination Emax (IGR-37 (Melanoma)) | combination Emax [7] | combination Emax [8] | combination Emax (NCI-H2591 (Mesothelioma)) | combination Emax [9] | combination Emax [10] | combination Emax [11] | combination Emax [12] | combination Emax [13] | combination Emax [14] | combination Emax (U-2-OS (Osteosarcoma)) | combination Emax [15]
C=CCn1c(=O)c2cnc(Nc3ccc(N4CCN(C)CC4)cc3)nc2n1-c1cccc(C(C)(C)O)n1 [AZD1775] + C[C@@H]1COCCN1C2=NC(=NC(=C2)C3(CC3)[S@](=N)(=O)C)C4=C5C=CNC5=NC=C4 [AZD6738] (first compound max 1 µM, partner max 10 µM) | 0.992 | 0.829 | 0.794 | 0.944 | 0.843 | 0.373 | 0.77 | 0.914 | 0.787 | 0.816 | 0.49 | 0.389 | 0.942 | 0.453 | 0.513 | 0.695 | 0.702 | 0.441 | 0.852 | 0.602
C=CCn1c(=O)c2cnc(Nc3ccc(N4CCN(C)CC4)cc3)nc2n1-c1cccc(C(C)(C)O)n1 [AZD1775] + O=C(c1cc(Cc2n[nH]c(=O)c3ccccc23)ccc1F)N1CCN(C(=O)C2CC2)CC1 [Olaparib] (first compound max 1 µM, partner max 10 µM) | 0.944 | 0.458 | 0.612 | 0.894 | 0.796 | 0.281 | 0.218 | 0.899 | 0.776 | 0.408 | 0.335 | 0.253 | 0.662 | 0.298 | 0.465 | 0.5 | 0.572 | 0.273 | 0.637 | 0.631
Cn1cnc2c(F)c(Nc3ccc(Br)cc3Cl)c(C(=O)NOCCO)cc21 [Selumetinib] + C=CCn1c(=O)c2cnc(Nc3ccc(N4CCN(C)CC4)cc3)nc2n1-c1cccc(C(C)(C)O)n1 [AZD1775] (first compound max 10 µM, partner max 1 µM) | 0.953 | 0.779 | 0.654 | 0.885 | 0.774 | 0.364 | 0.397 | 0.689 | 0.878 | 0.609 | 0.538 | 0.309 | 0.682 | 0.244 | 0.546 | 0.631 | 0.449 | 0.305 | 0.699 | 0.509
COc1cccc(OCCCN)c1-c1cc(Nc2cnc(C#N)cn2)n[nH]1 [Prexasertib] + Cc1cc2ncnn2cc1Nc1ncc2c(n1)n(C1CCOCC1)c(=O)n2C [AZD7648] (first compound max 1 µM, 7x7, partner max 10 µM) | 1 | 0.63 | 0.79 | 0.903 | 0.671 | 0.367 | 0.843 | 0.954 | 0.923 | 0.943 | 0.334 | 0.415 | 0.862 | 0.469 | 0.522 | 0.804 | 0.826 | 0.611 | 0.913 | 0.729
CC1(C)CCC(CN2CCN(c3ccc(C(=O)NS(=O)(=O)c4ccc(NCC5CCOCC5)c([N+](=O)[O-])c4)c(Oc4cnc5[nH]ccc5c4)c3)CC2)=C(c2ccc(Cl)cc2)C1 [Venetoclax] + C=CCn1c(=O)c2cnc(Nc3ccc(N4CCN(C)CC4)cc3)nc2n1-c1cccc(C(C)(C)O)n1 [AZD1775] (first compound max 1 µM, partner max 1 µM) | 0.937 | 0.406 | 0.483 | 0.784 | 0.989 | 0.626 | 0.364 | 0.99 | 0.852 | 0.378 | 0.343 | 0.279 | 0.781 | 0.326 | 0.486 | 0.565 | 0.625 | 0.673 | 0.679 | 0.668
Cn1cnc2c(F)c(Nc3ccc(Br)cc3Cl)c(C(=O)NOCCO)cc21 [Selumetinib] + CC(C)n1c(=O)n(C)c2cnc3cc(F)c(-c4ccc(OCCCN5CCCCC5)nc4)cc3c21 [AZD1390] (first compound max 10 µM, 7x7, partner max 0.3 µM) | 0.408 | 0.761 | 0.216 | 0.379 | 0.202 | 0.273 | 0.227 | 0.288 | 0.76 | 0.537 | 0.529 | 0.199 | 0.713 | 0.158 | 0.402 | 0.464 | 0.185 | 0.201 | 0.577 | 0.0626
COc1cccc2c1C(=O)c1c(O)c3c(c(O)c1C2=O)C[C@@](O)(C(=O)CO)C[C@@H]3O[C@H]1C[C@H](N)[C@H](O)[C@H](C)O1 [Doxorubicin] + Cc1cc2ncnn2cc1Nc1ncc2c(n1)n(C1CCOCC1)c(=O)n2C [AZD7648] (first compound max 1 µM, 7x7, partner max 10 µM) | 0.984 | 0.906 | 0.735 | 0.477 | 1 | 0.59 | 0.729 | 0.94 | 0.777 | 0.965 | 0.825 | 0.693 | 0.935 | 0.348 | 0.715 | 0.686 | 0.802 | 0.604 | 0.55 | 0.641
